Calls of active or inactive are those of the source. No cut-off for these calls is given here.
Assays:
[1] = test system: Quadruplex DNA; assay: Stabilization of 5'-DABCYL/3'-FAM labeled KRAS G-quadruplex oligonucleotide (unknown origin) assessed as change in melting temperature at 5 uM preincubated for 5 mins and measured after 5 mins by FRET assay; type: nucleic-acid assay
[2] = test system: Quadruplex DNA; assay: Stabilization of 5'-DABCYL/3'-FAM labeled cKIT1 G-quadruplex oligonucleotide (unknown origin) assessed as change in melting temperature at 5 uM preincubated for 5 mins and measured after 5 mins by FRET assay; type: nucleic-acid assay
[3] = test system: Quadruplex DNA; assay: Stabilization of 5'-DABCYL/3'-FAM labeled BCL2 G-quadruplex oligonucleotide (unknown origin) assessed as change in melting temperature at 5 uM preincubated for 5 mins and measured after 5 mins by FRET assay; type: nucleic-acid assay
[4] = test system: Quadruplex DNA; assay: Stabilization of 5'-DABCYL/3'-FAM labeled cMYC G-quadruplex oligonucleotide (unknown origin) assessed as change in melting temperature at 5 uM preincubated for 5 mins and measured after 5 mins by FRET assay; type: nucleic-acid assay
[5] = test system: dsDNA; assay: Stabilization of 5'-DABCYL labeled double stranded DNA (unknown origin) assessed as change in melting temperature at 5 uM preincubated for 5 mins and measured after 5 mins by FRET assay; type: nucleic-acid assay
[6] = test system: Quadruplex DNA; assay: Stabilization of 5'-DABCYL/3'-FAM labeled HTS G-quadruplex oligonucleotide (unknown origin) assessed as change in melting temperature at 5 uM preincubated for 5 mins and measured after 5 mins by FRET assay; type: nucleic-acid assay
[7] = target: Quadruplex DNA; assay: Binding affinity to 5'-cy5 labeled cKIT1 G-quadruplex oligonucleotide (unknown origin) by microscale thermophoresis analysis; type: nucleic-acid assay
[8] = target: Quadruplex DNA; assay: Binding affinity to 5'-biotin-TEG labeled cKIT1 G-quadruplex oligonucleotide (unknown origin) by SPR analysis; type: nucleic-acid assay
[9] = test system: Quadruplex DNA; assay: Binding affinity to 5'-DABCYL/3'-FAM labeled cKIT1 G-quadruplex oligonucleotide (unknown origin) assessed as conformational change at test compound to DNA ratio of 4:1 measured for 10 mins by circular dichroism analysis; type: nucleic-acid assay
[10] = test system: A549; assay: Cytotoxicity against human A549 cells assessed as cell viability at 20 uM incubated for 48 hrs by trypan blue assay relative to control; type: functional; conditions: A549, 48 h, read-out: Activity
[11] = test system: Quadruplex DNA; assay: Competitive binding affinity to 5'-DABCYL/3'-FAM labeled cKIT1 G-quadruplex oligonucleotide (unknown origin) at 5 uM preincubated for 5 mins and measured after 5 mins in presence of ds DNA by FRET assay; type: nucleic-acid assay
[12] = test system: A2780; assay: Cytotoxicity against human A2780 cells assessed as cell viability at 20 uM incubated for 48 hrs by trypan blue assay relative to control; type: functional; conditions: A2780, 48 h, read-out: Activity
[13] = test system: HT-29; assay: Cytotoxicity against human HT-29 cells assessed as cell viability at 20 uM incubated for 48 hrs by trypan blue assay relative to control; type: functional; conditions: HT-29, 48 h, read-out: Activity
[14] = test system: Quadruplex DNA; assay: Binding affinity to 5'-DABCYL/3'-FAM labeled cKIT1 G-quadruplex oligonucleotide (unknown origin) assessed as melting temperature at test compound to DNA ratio of 4:1 measured for 10 mins by circular dichroism analysis; type: nucleic-acid assay

| Compound | deltaTm [1] | ΔTm [2] [°C] | ΔTm [3] [°C] | ΔTm [4] [°C] | deltaTm [5] | ΔTm [6] [°C] | deltaTm [2] | ΔTm [5] [°C] | Kd [7] [nM] | ΔTm [1] [°C] | Kd [8] [nM] | Activity [9] | viability at 20 µM [10] [%] | Activity [11] | viability at 20 µM [12] [%] | viability at 20 µM [13] [%] | Tm [14] [°C] | deltaTm [3] | deltaTm [4] |
| --- | --- | --- | --- | --- | --- | --- | --- | --- | --- | --- | --- | --- | --- | --- | --- | --- | --- | --- | --- |
| C=C(C)Cc1c(OCC(=O)NCC2CCCN2CC)ccc2c1c1ccnc3c4ccccc4c(=O)n2c13 (centres undefined) | inactive | 1.6 | 0 | 3.4 | inactive | 1.7 |  |  |  |  |  |  |  |  |  |  |  |  |  |
| CCN1CCN(C(=O)c2cc3c4ccccc4n4c(=O)c5ccccc5c(n2)c34)CC1 | inactive |  | 2.3 | 1.2 |  | 1.5 | inactive | 0.6 |  |  |  |  |  |  |  |  |  |  |  |
| CN(C)Cc1c(O)ccc2c1c1ccnc3c4ccccc4c(=O)n2c13 | inactive | 5 | 1.1 | 3.8 |  | 3.3 |  | 0.1 |  |  |  |  |  |  |  |  |  |  |  |
| COc1ccc2c(c1OC)c(=O)n1c3ccc(OCC(=O)NCCCN4CCOCC4)cc3c3ccnc2c31 |  | 6.3 | 3.4 | 4.9 |  | 4.5 |  | 0.1 | 300 | 0.8 | 510 | Active | 69 | inactive | 94 | 85 | 59.9 |  |  |
| COc1ccc2c(c1OC)c(=O)n1c3ccccc3c3cc(C(=O)N4CCN(Cc5ccccc5)CC4)nc2c31 | inactive |  |  |  | inactive | 0.5 | inactive |  |  |  |  |  |  |  |  |  |  | inactive | inactive |
| COc1ccc2c(c1OC)c(=O)n1c3ccccc3c3cc(C(=O)N4CCN(CCO)CC4)nc2c31 | inactive |  | 2.3 | 0.8 | inactive | 0.6 | inactive |  |  |  |  |  |  |  |  |  |  |  |  |

From ChEMBL document CHEMBL4311958, “Targeting multiple G-quadruplex-forming DNA sequences: Design, biophysical and biological evaluations of indolo-naphthyridine scaffold derivatives” (Eur J Med Chem, 2019)
